Source: ChEMBL document CHEMBL3390848, “Affinity selection and sequence-activity relationships of HIV-1 membrane fusion inhibitors directed at the drug-resistant variants” (Medchemcomm, 2010)
Residues, ends and D or L forms follow the SMILES beside them.

Assays:
[1] = test system: Human immunodeficiency virus 1; assay: Antiviral activity against HIV1 NL4-3 harboring gp41 D36G mutant infected in human HeLa cells expressing CD4-LTR-beta-gal assessed as inhibition of viral replication after 48 hrs by MAGI assay; format: functional, organism-based
[2] = test system: Human immunodeficiency virus 1; assay: Thermal stability of HIV1 envelope glycoprotein gp41 His-tagged N-terminal heptad repeat N36-drug complex assessed as thermal unfolding transition state by measuring molar ellipticity at 4 to 90 degC by circular dichroic spectra analysis
[3] = test system: Human immunodeficiency virus 1; assay: Binding affinity to HIV1 His-tagged N-terminal heptad repeat of envelope glycoprotein gp41 assessed as recovery of N36-drug complex after 2 hrs by LC-MS analysis; parameters: concentration or dose not given beside the values
[4] = test system: Human immunodeficiency virus 1; assay: Binding affinity to HIV1 His-tagged N-terminal heptad repeat of envelope glycoprotein gp41 assessed as recovery of N54-drug complex after 2 hrs by LC-MS analysis; parameters: concentration or dose not given beside the values
[5] = test system: Human immunodeficiency virus 1; assay: Thermal stability of HIV1 envelope glycoprotein gp41 His-tagged N-terminal heptad repeat N54-drug complex assessed as thermal unfolding transition state by measuring molar ellipticity at 4 to 90 degC by circular dichroic spectra analysis

SMILES | EC50 [1] | Tm [2] | Activity [3] | Activity [4] | Tm [5]
CC[C@H](C)[C@H](NC(=O)[C@H](CC(C)C)NC(=O)[C@H](CCC(=O)O)NC(=O)[C@H](CCC(=O)O)NC(=O)[C@@H](NC(=O)[C@H](CCCCN)NC(=O)[C@H](CCCCN)NC(=O)[C@@H](NC(=O)[C@H](Cc1ccc(O)cc1)NC(=O)[C@H](CCC(=O)O)NC(=O)[C@H](CCC(=O)O)NC(=O)[C@@H](NC(=O)[C@H](CCCCN)NC(=O)[C@H](CCCCN)NC(=O)[C@H](CC(=O)O)NC(=O)[C@H](Cc1c[nH]c2ccccc12)NC(=O)[C@H](CCC(=O)O)NC(=O)[C@H](CCC(=O)O)NC(=O)[C@H](Cc1c[nH]c2ccccc12)NC(C)=O)[C@@H](C)CC)[C@@H](C)O)[C@@H](C)CC)C(=O)N[C@@H](CCCCN)C(=O)N[C@@H](CCCCN)C(=O)N[C@@H](CO)C(=O)N[C@@H](CCC(=O)O)C(=O)N[C@@H](CCC(=O)O)C(=O)N[C@@H](CO)C(=O)N[C@@H](CCC(N)=O)C(=O)N[C@@H](CCCCN)C(=O)N[C@@H](CCCCN)C(=O)N[C@@H](CC(N)=O)C(=O)N[C@@H](CCC(=O)O)C(=O)N[C@@H](CCC(=O)O)C(=O)N[C@@H](CCC(=O)O)C(=O)N[C@@H](CC(C)C)C(=O)N[C@@H](CCCCN)C(=O)N[C@@H](CCCCN)C(N)=O (Ac-WEEWDKKIEEYTKKIEELIKKSEESQKKNEEELKK-NH2) | 2.5 nM | 72.4 °C | 4% |  | 
CC[C@H](C)[C@H](NC(=O)[C@H](CC(C)C)NC(=O)[C@H](CCC(=O)O)NC(=O)[C@H](CCC(=O)O)NC(=O)[C@@H](NC(=O)[C@H](CCCCN)NC(=O)[C@H](CCCCN)NC(=O)[C@@H](NC(=O)[C@H](Cc1ccc(O)cc1)NC(=O)[C@H](CCC(=O)O)NC(=O)[C@H](CCC(=O)O)NC(=O)[C@@H](NC(=O)[C@H](CCCCN)NC(=O)[C@H](CCCCN)NC(=O)[C@H](CC(=O)O)NC(=O)[C@H](Cc1c[nH]c2ccccc12)NC(=O)[C@H](CCC(=O)O)NC(=O)[C@H](CCC(=O)O)NC(=O)[C@H](Cc1c[nH]c2ccccc12)NC(C)=O)[C@@H](C)CC)[C@@H](C)O)[C@@H](C)CC)C(=O)N[C@@H](CCCCN)C(=O)N[C@@H](CCCCN)C(=O)N[C@@H](CO)C(=O)N[C@@H](CCC(=O)O)C(=O)N[C@@H](CCC(=O)O)C(=O)N[C@@H](CCC(=O)O)C(=O)N[C@@H](CCC(N)=O)C(=O)N[C@@H](CCCCN)C(=O)N[C@@H](CCCCN)C(=O)N[C@@H](CC(N)=O)C(=O)N[C@@H](CCC(=O)O)C(=O)N[C@@H](CCC(=O)O)C(=O)N[C@@H](CCC(=O)O)C(=O)N[C@@H](CC(C)C)C(=O)N[C@@H](CCCCN)C(=O)N[C@@H](CCCCN)C(N)=O (Ac-WEEWDKKIEEYTKKIEELIKKSEEEQKKNEEELKK-NH2) | 2.4 nM | 76.2 °C | 4.3% |  | 
CC[C@H](C)[C@H](NC(=O)[C@H](CC(C)C)NC(=O)[C@H](CCC(=O)O)NC(=O)[C@H](CCC(=O)O)NC(=O)[C@@H](NC(=O)[C@H](CC(C)C)NC(=O)[C@H](CO)NC(=O)[C@@H](NC(=O)[C@H](Cc1ccc(O)cc1)NC(C)=O)[C@@H](C)O)[C@@H](C)CC)C(=O)N[C@@H](CCCCN)C(=O)N[C@@H](CCCCN)C(=O)N[C@@H](CO)C(=O)N[C@@H](CCC(=O)O)C(=O)N[C@@H](CCC(=O)O)C(=O)N[C@@H](CCC(=O)O)C(=O)N[C@@H](CCC(N)=O)C(=O)N[C@@H](CCCCN)C(=O)N[C@@H](CCCCN)C(=O)N[C@@H](CC(N)=O)C(=O)N[C@@H](CCC(=O)O)C(=O)N[C@@H](CCC(=O)O)C(=O)N[C@@H](CCC(=O)O)C(=O)N[C@@H](CC(C)C)C(=O)N[C@@H](CCCCN)C(=O)N[C@@H](CCCCN)C(=O)N[C@@H](CC(C)C)C(=O)N[C@@H](CCC(=O)O)C(=O)N[C@@H](CCC(=O)O)C(=O)N[C@@H](Cc1c[nH]c2ccccc12)C(=O)N[C@@H](C)C(=O)N[C@@H](CCCCN)C(=O)N[C@@H](CCCCN)C(=O)N[C@@H](Cc1c[nH]c2ccccc12)C(=O)N[C@@H](CC(N)=O)C(=O)N[C@@H](Cc1c[nH]c2ccccc12)C(=O)N[C@@H](Cc1ccccc1)C(N)=O (Ac-YTSLIEELIKKSEEEQKKNEEELKKLEEWAKKWNWF-NH2) | 3.8 nM |  |  | 8.2% | 71.8 °C
CC[C@H](C)[C@H](NC(=O)[C@H](CC(C)C)NC(=O)[C@H](CCC(=O)O)NC(=O)[C@H](CCC(=O)O)NC(=O)[C@@H](NC(=O)[C@H](CC(C)C)NC(=O)[C@H](CO)NC(=O)[C@@H](NC(=O)[C@H](Cc1ccc(O)cc1)NC(C)=O)[C@@H](C)O)[C@@H](C)CC)C(=O)N[C@@H](CCCCN)C(=O)N[C@@H](CCCCN)C(=O)N[C@@H](CO)C(=O)N[C@@H](CCC(=O)O)C(=O)N[C@@H](CCC(=O)O)C(=O)N[C@@H](Cc1ccc(O)cc1)C(=O)N[C@@H](CCC(N)=O)C(=O)N[C@@H](CCCCN)C(=O)N[C@@H](CCCCN)C(=O)N[C@@H](CC(N)=O)C(=O)N[C@@H](CCC(=O)O)C(=O)N[C@@H](CCC(=O)O)C(=O)N[C@@H](CCC(=O)O)C(=O)N[C@@H](CC(C)C)C(=O)N[C@@H](CCCCN)C(=O)N[C@@H](CCCCN)C(=O)N[C@@H](CC(C)C)C(=O)N[C@@H](CCC(=O)O)C(=O)N[C@@H](CCC(=O)O)C(=O)N[C@@H](Cc1c[nH]c2ccccc12)C(=O)N[C@@H](C)C(=O)N[C@@H](CCCCN)C(=O)N[C@@H](CCCCN)C(=O)N[C@@H](Cc1c[nH]c2ccccc12)C(=O)N[C@@H](CC(N)=O)C(=O)N[C@@H](Cc1c[nH]c2ccccc12)C(=O)N[C@@H](Cc1ccccc1)C(N)=O (Ac-YTSLIEELIKKSEEYQKKNEEELKKLEEWAKKWNWF-NH2) | 2.3 nM |  |  | 4.9% | 67.7 °C
CC[C@H](C)[C@H](NC(=O)[C@H](CC(C)C)NC(=O)[C@H](CCC(=O)O)NC(=O)[C@H](CCC(=O)O)NC(=O)[C@@H](NC(=O)[C@H](CC(C)C)NC(=O)[C@H](CO)NC(=O)[C@@H](NC(=O)[C@H](Cc1ccc(O)cc1)NC(C)=O)[C@@H](C)O)[C@@H](C)CC)C(=O)N[C@@H](CCCCN)C(=O)N[C@@H](CCCCN)C(=O)NCC(=O)N[C@@H](CCC(=O)O)C(=O)N[C@@H](CCC(=O)O)C(=O)N[C@@H](CCC(N)=O)C(=O)N[C@@H](CCC(N)=O)C(=O)N[C@@H](CCCCN)C(=O)N[C@@H](CCCCN)C(=O)N[C@@H](CC(N)=O)C(=O)N[C@@H](CCC(=O)O)C(=O)N[C@@H](CCC(=O)O)C(=O)N[C@@H](CCC(=O)O)C(=O)N[C@@H](CC(C)C)C(=O)N[C@@H](CCCCN)C(=O)N[C@@H](CCCCN)C(=O)N[C@@H](CC(C)C)C(=O)N[C@@H](CCC(=O)O)C(=O)N[C@@H](CCC(=O)O)C(=O)N[C@@H](Cc1c[nH]c2ccccc12)C(=O)N[C@@H](C)C(=O)N[C@@H](CCCCN)C(=O)N[C@@H](CCCCN)C(=O)N[C@@H](Cc1c[nH]c2ccccc12)C(=O)N[C@@H](CC(N)=O)C(=O)N[C@@H](Cc1c[nH]c2ccccc12)C(=O)N[C@@H](Cc1ccccc1)C(N)=O (Ac-YTSLIEELIKKGEEQQKKNEEELKKLEEWAKKWNWF-NH2) | 0.4 nM |  |  | 9.6% | 76.7 °C
CC[C@H](C)[C@H](NC(=O)[C@H](CC(C)C)NC(=O)[C@H](CCC(=O)O)NC(=O)[C@H](CCC(=O)O)NC(=O)[C@@H](NC(=O)[C@H](CC(C)C)NC(=O)[C@H](CO)NC(=O)[C@@H](NC(=O)[C@H](Cc1ccc(O)cc1)NC(C)=O)[C@@H](C)O)[C@@H](C)CC)C(=O)N[C@@H](CCCCN)C(=O)N[C@@H](CCCCN)C(=O)N[C@@H](Cc1ccc(O)cc1)C(=O)N[C@@H](CCC(=O)O)C(=O)N[C@@H](CCC(=O)O)C(=O)N[C@@H](CCC(N)=O)C(=O)N[C@@H](CCC(N)=O)C(=O)N[C@@H](CCCCN)C(=O)N[C@@H](CCCCN)C(=O)N[C@@H](CC(N)=O)C(=O)N[C@@H](CCC(=O)O)C(=O)N[C@@H](CCC(=O)O)C(=O)N[C@@H](CCC(=O)O)C(=O)N[C@@H](CC(C)C)C(=O)N[C@@H](CCCCN)C(=O)N[C@@H](CCCCN)C(=O)N[C@@H](CC(C)C)C(=O)N[C@@H](CCC(=O)O)C(=O)N[C@@H](CCC(=O)O)C(=O)N[C@@H](Cc1c[nH]c2ccccc12)C(=O)N[C@@H](C)C(=O)N[C@@H](CCCCN)C(=O)N[C@@H](CCCCN)C(=O)N[C@@H](Cc1c[nH]c2ccccc12)C(=O)N[C@@H](CC(N)=O)C(=O)N[C@@H](Cc1c[nH]c2ccccc12)C(=O)N[C@@H](Cc1ccccc1)C(N)=O (Ac-YTSLIEELIKKYEEQQKKNEEELKKLEEWAKKWNWF-NH2) | 5 nM |  |  | 4.7% | 61.1 °C
CC[C@H](C)[C@H](NC(=O)[C@H](CC(C)C)NC(=O)[C@H](CCC(=O)O)NC(=O)[C@H](CCC(=O)O)NC(=O)[C@@H](NC(=O)[C@H](CC(C)C)NC(=O)[C@H](CO)NC(=O)[C@@H](NC(=O)[C@H](Cc1ccc(O)cc1)NC(C)=O)[C@@H](C)O)[C@@H](C)CC)C(=O)N[C@@H](CCCCN)C(=O)N[C@@H](CCCCN)C(=O)N[C@@H](CCSC)C(=O)N[C@@H](CCC(=O)O)C(=O)N[C@@H](CCC(=O)O)C(=O)N[C@@H](CCC(N)=O)C(=O)N[C@@H](CCC(N)=O)C(=O)N[C@@H](CCCCN)C(=O)N[C@@H](CCCCN)C(=O)N[C@@H](CC(N)=O)C(=O)N[C@@H](CCC(=O)O)C(=O)N[C@@H](CCC(=O)O)C(=O)N[C@@H](CCC(=O)O)C(=O)N[C@@H](CC(C)C)C(=O)N[C@@H](CCCCN)C(=O)N[C@@H](CCCCN)C(=O)N[C@@H](CC(C)C)C(=O)N[C@@H](CCC(=O)O)C(=O)N[C@@H](CCC(=O)O)C(=O)N[C@@H](Cc1c[nH]c2ccccc12)C(=O)N[C@@H](C)C(=O)N[C@@H](CCCCN)C(=O)N[C@@H](CCCCN)C(=O)N[C@@H](Cc1c[nH]c2ccccc12)C(=O)N[C@@H](CC(N)=O)C(=O)N[C@@H](Cc1c[nH]c2ccccc12)C(=O)N[C@@H](Cc1ccccc1)C(N)=O (Ac-YTSLIEELIKKMEEQQKKNEEELKKLEEWAKKWNWF-NH2) | 0.2 nM |  |  | 9.9% | 79 °C
